# Measurements: patent publication US10130611B2, “Use of benzo-heterocycle derivatives for preventing and treating cancer or for inhibiting cancer metastasis” (MEDICINAL BIOCONVERGENCE RESEARCH CENTER, priority 2009, dated 2018)
# Entries after “also recorded” stand apart in the source; their conditions may differ.
# How the values were obtained:
# [1] = molecular target: T1, GST-KRS (Homo sapiens, UniProt Q15046); assay: Surface plasmon resonance assay (BIAcore3000); details: GST-KRS immobilized on CM5 chip, binding to GST subtracted, 25° C., 1:1 binding
# T1 construct: made in house; host or cells: E. coli Rosetta (DE3)
# Protocol: (§1) As a control, an OD level of cells treated with DMSO was measured. FIG. 32 is a photograph showing cell growth in wells containing yeast cells having indicated interaction pairs in the presence or absence of CAND-KL1. In FIG. 33, in 293 cells, through co-immunoprecipitation, the KL1-dose-dependent effect on the interaction between KRS and 67LR was tested. The cells were treated with KL1 for 3 hours, 67LR was immunoprecipitated, and co-precipitation of KRS was determined by western blotting. In FIG. 34, in the presence of KL1 in indicated levels, a laminin receptor labeled with radioisotope was mixed with GST-KRS (1 μg). GST-KRS was precipitated with glutathione-Sepharose beads, and co-precipitated laminin receptor was detected with autoradiography. In FIG. 35, in A549 cells, the effect of KL1 on the intracellular level of 67LR and 37LRP was tested with western blotting. […] GST-KRS was immobilized on a CM5 Sensor Chip, and the binding was measured by a resonance unit (RU) at indicated concentrations (indicated by different colors). […]
# The interaction between KRS and the compound (Formula 15) was tested by BIAcore3000 (GE healthcare). […] Then, the binding was measured by a change in a resonance unit (RU). The specific binding activity of CAND-KL1 to GST-KRS was measured by subtracting binding to GST in sensorgram. […]
# [2] = molecular target: T2, interaction between laminin receptor and GST-KRS (Homo sapiens, UniProt Q15046); assay: In vitro pull-down of radiolabelled laminin receptor with GST-KRS; format: binding; details: KL1 in different amounts; GST-KRS 1 μg; autoradiography
# T2 construct: made in house; host or cells: GST-KRS: E. coli Rosetta (DE3); 37LRP: TNT Quick coupled Transcription/Translation system (Promega) from pcDNA3-37LRP
# Protocol: as §1
# From among the compounds, the inventors also examined whether the compound represented by Formula 15 (indicated by CAND-KL1, and KL1) can inhibit the intracellular interaction between KRS and 67LR. […] Then, 67LR was immunoprecipitated with its antibody, and co-immunoprecipitation of KRS was determined. […]
# [3] = system: Mouse mammary carcinoma 4T-1 cells; assay: In vivo cancer metastasis experiment; set-up: species or system Balb/c mice; details: mice, 30 mg/kg once a day for 3 weeks
# Protocol: On MMP2 activity (FIG. 37) and cell migration (FIGS. 38 and 39), KL1-dose-dependent effect was measured. For the test on the cell migration, the cells were treated with KL1 for 8 hours. In FIG. 40, in order to see the effect of KL1 on protein synthesis of cells, A549 cells were treated with KL1 at indicated concentrations, and starved in methionine-free medium. Then, [^35S] methionine was added thereto for 2 hours. Then, the cells were incubated in complete medium for 4 hours, and the level of added methionine was measured by a scintillation counter. In FIG. 41, KL1-dose-dependent cytotoxicity was measured by using A549 cells. In FIG. 42, the effect of KL1 on cancer metastasis was measured according to the method as described above. In each group, 6 mice were included, and KL1 was abdominally injected for 3 weeks, in a dose of 30 mg/kg once a day. Then, the mice were sacrificed. The metastasized tumor nodules over 1 mm in diameter were counted, and their average was calculated (left). […]
# Mouse mammary carcinoma 4T-1 cells were transfected with si-KRS, si-DRS or si-control, and incubated for 24 hours. […] The growth of a tumor was monitored by measuring a tumor size three times per week. The whole body weights were also simultaneously measured. […] The number and size of metastatic tumor nodules in lungs were measured, and tumor nodules of larger than 1 mm in diameter were separately recorded. […]
# T1 sequence (Q15046 whole entry): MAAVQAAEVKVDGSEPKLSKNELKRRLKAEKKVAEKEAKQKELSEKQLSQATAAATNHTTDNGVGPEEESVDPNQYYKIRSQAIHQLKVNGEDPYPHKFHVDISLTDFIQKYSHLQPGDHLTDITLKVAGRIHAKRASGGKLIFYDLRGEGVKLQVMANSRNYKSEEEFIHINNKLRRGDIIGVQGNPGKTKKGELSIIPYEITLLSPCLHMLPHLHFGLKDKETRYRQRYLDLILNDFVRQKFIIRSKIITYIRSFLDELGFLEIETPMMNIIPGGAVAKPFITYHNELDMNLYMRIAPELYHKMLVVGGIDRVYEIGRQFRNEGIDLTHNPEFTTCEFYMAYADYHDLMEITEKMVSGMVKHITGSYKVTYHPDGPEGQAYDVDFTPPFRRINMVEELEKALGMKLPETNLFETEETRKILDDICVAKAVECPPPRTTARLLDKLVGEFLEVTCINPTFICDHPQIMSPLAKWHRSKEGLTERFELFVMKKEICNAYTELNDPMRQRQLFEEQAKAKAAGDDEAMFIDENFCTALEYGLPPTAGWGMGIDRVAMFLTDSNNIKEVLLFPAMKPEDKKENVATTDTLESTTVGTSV
# T2 sequence (Q15046 whole entry): as above
smiles,measurement,setting,value
"CCC(C(=O)O)n1/c(=N/C(=O)c2ccc(C)cc2)sc2ccccc21 (stereo not shown) [Compound of formula 15, 2-[2-(4-Methyl-benzoylimino)-benzothiazol-3-yl]-butyric acid]",Kd,[1],~2600 nM
same,level of laminin receptor pulled down with GST-KRS,[2],decreased according to an increase of the added KL1 compound
same,number of metastasized nodules,"[3]; abdominally injected, lung nodules over 1 mm in diameter",significantly reduced
same,primary tumor growth (weight and size),"[3]; KL1 treated vs non-treated group, listed as KL1, 30 mg/kg",no significant difference in weight and size; also recorded: did not affect
